Tested on: Patients with moderate to severe stable COPD
Assay: 4-week randomized once-daily inhaled treatment in COPD patients, spirometry (FEV1) and tolerability
Type: in vivo, human
Experimental: Methods: Patients with moderate to severe stable COPD were randomized to receive double-blind, once-daily treatment with aclidinium (25, 50, 100, 200, or 400 μg), placebo, or open-label tiotropium 18 μg for 4 weeks. Spirometric measurements were performed at 22-24 h after the first dose and then at weekly intervals, and from 0.5-6 h post-administration on Day 1 and at Week 4 (Day 29).
Results: The ITT population included 460 patients.
Mean change from baseline in trough FEV1 on Day 29

[1] = 25-400 μg once daily for 4 weeks, COPD patients

SMILES | Mean change from baseline in trough FEV1 on Day 29 (Mean Δ) (tiotropium 18 μg once daily, open-label, 4 weeks, COPD patients, *p < 0.05 vs placebo) | Effect on ECG, laboratory parameters or adverse events [1] | Tolerability [1] | Effect on trough FEV1 on Day 29 (dose dependence) (25-400 μg once daily, ITT population 460 patients) | Bronchodilatory effect compared with open-label tiotropium 18 μg (aclidinium 200 and 400 μg) | Bronchodilatory effect during the first 6 h post-dose on Day 29 versus Day 1 (all doses) | Duration of bronchodilation (once-daily dosing, COPD patients)
C[N+]1(C)[C@@H]2C[C@@H](OC(=O)C(O)(c3cccs3)c3cccs3)C[C@H]1[C@@H]1O[C@@H]12 [Tiotropium, reference compound] | 161* ml | – | – | – | – | – | –
O=C(O[C@H]1C[N+]2(CCCOc3ccccc3)CCC1CC2)C(O)(c1cccs1)c1cccs1.[Br-] [Aclidinium, 3(R)-(2-hydroxy-2,2-dithien-2-ylacetoxy)-1-(3-phenoxypropyl)-1-azoniabicyclo[2.2.2]octane bromide] | – | no dose-dependent effect | well tolerated | dose-dependently increased | comparable bronchodilatory effects | comparable to that on Day 1 | sustained bronchodilation over 24 h

From patent publication US9254262B2, “Dosage and formulation” (Almirall, S.A., priority 2008, dated 2016)
